Data taken from ChEMBL document CHEMBL6092220 (J Med Chem, 2024).
pIC50: −log10 of the molar value. Active and inactive are the calls of the source. No cut-off for these calls is given here.

Legend:
[1] = biological target: T1, Protein cereblon/Signal transducer and activator of transcription 3 (Homo sapiens, UniProt P40763+Q96SW2); experiment: PROTAC activity at his-SUMO-tagged STAT3 (127 to 688 residues)/CRBN in human HeLa cells assessed as induction of STAT3 degradation incubated for 24 hrs by TECAN SPARK microplate reader analysis relative to control; type: cell-based
[2] = biological target: T1, Protein cereblon/Signal transducer and activator of transcription 3; experiment: PROTAC activity at his-SUMO-tagged STAT3 (127 to 688 residues)/CRBN in human HeLa cells assessed as induction of STAT3 degradation incubated for 24 hrs by TECAN SPARK microplate reader analysis; type: cell-based
[3] = biological target: T2, Protein cereblon/Signal transducer and activator of transcription 3 (Mus musculus) (UniProt P42227+Q8C7D2); experiment: In-vivo PROTAC activity at STAT3/CRBN in female CB17 SCID mouse assessed as reduction STAT3 level spleen at 10 mg/kg, iv measured at 24 hrs by Western blot analysis; type: functional, organism-based; set-up: scale not given: the % may be the effect or the level left
[4] = biological target: T2, Protein cereblon/Signal transducer and activator of transcription 3 (Mus musculus); experiment: In-vivo PROTAC activity at STAT3/CRBN in female CB17 SCID mouse assessed as reduction STAT3 level liver at 10 mg/kg, iv measured at 24 hrs by Western blot analysis; type: functional, organism-based; set-up: scale not given: the % may be the effect or the level left
[5] = Binding affinity to STAT5 (unknown origin) by FP assay; set-up: species or system Homo sapiens
[6] = biological target: T1, Protein cereblon/Signal transducer and activator of transcription 3; experiment: PROTAC activity at his-SUMO-tagged STAT3 (127 to 688 residues)/CRBN in human HeLa cells assessed as induction of STAT3 degradation upto 5 uM incubated for 24 hrs by TECAN SPARK microplate reader analysis; type: cell-based
[7] = biological target: T2, Protein cereblon/Signal transducer and activator of transcription 3 (Mus musculus); experiment: In-vivo PROTAC activity at STAT3/CRBN in female CB17 SCID mouse assessed as reduction STAT3 level liver at 10 mg/kg, iv measured at 48 hrs by Western blot analysis; type: functional, organism-based; set-up: scale not given: the % may be the effect or the level left
[8] = biological target: T2, Protein cereblon/Signal transducer and activator of transcription 3 (Mus musculus); experiment: In-vivo PROTAC activity at STAT3/CRBN in female CB17 SCID mouse assessed as reduction STAT3 level liver at 10 mg/kg, iv measured at 72 hrs by Western blot analysis; type: functional, organism-based; set-up: scale not given: the % may be the effect or the level left
SU-DHL-1 = experiment: Antiproliferative activity against human SU-DHL-1 cells assessed as cell growth inhibition incubated for 4 days by celltiter-glo assay; type: functional, cell-based; conditions: SU-DHL-1, 96 h
[9] = biological target: T2, Protein cereblon/Signal transducer and activator of transcription 3 (Mus musculus); experiment: In-vivo PROTAC activity at STAT3/CRBN in female CB17 SCID mouse assessed as reduction STAT3 level spleen at 10 mg/kg, iv measured at 48 hrs by Western blot analysis; type: functional, organism-based; set-up: scale not given: the % may be the effect or the level left
[10] = biological target: T2, Protein cereblon/Signal transducer and activator of transcription 3 (Mus musculus); experiment: In-vivo PROTAC activity at STAT3/CRBN in female CB17 SCID mouse assessed as reduction STAT3 level spleen at 10 mg/kg, iv measured at 72 hrs by Western blot analysis; type: functional, organism-based; set-up: scale not given: the % may be the effect or the level left
[11] = Antiproliferative activity against human MOLM16 cells assessed as cell growth inhibition incubated for 4 days by celltiter-glo assay; type: functional, cell-based, MOLM-16; conditions: MOLM16, 96 h
[12] = Antiproliferative activity against human SUPM2 cells assessed as cell growth inhibition incubated for 4 days by celltiter-glo assay; type: functional, cell-based; conditions: SUP-M2, 96 h

| SMILES | Emax [1] [%] | DC50 [2] [nM] | also measured |
| --- | --- | --- | --- |
| CN1CC[C@H]2CC[C@@H](C(=O)N[C@@H](CCC(N)=O)C(=O)N[C@@H](C(=O)N3CCC(CCC#Cc4cccc5c4CN(C4CCC(=O)NC4=O)C5=O)CC3)C(C)(C)C)N2C(=O)[C@@H](NC(=O)c2cc3cc(C(F)(F)P(=O)(O)O)ccc3s2)C1 (some centres not stated) | 80 | 1010 | – |
| NC(=O)CC[C@H](NC(=O)[C@@H]1CC[C@@H]2CCNC[C@H](NC(=O)c3cc4cc(C(F)(F)P(=O)(O)O)ccc4s3)C(=O)N21)C(=O)N[C@@H](Cc1ccc(F)c(F)c1)C(=O)N1CCC(CCC#Cc2cccc3c2CN(C2CCC(=O)NC2=O)C3=O)CC1 (some centres not stated) | 73 | 1200 | Activity [3]: Active; Activity [4]: Active |
| CN1CC[C@H]2CC[C@@H](C(=O)N[C@@H](CCC(N)=O)C(=O)N[C@H](C(=O)N3CCN(CCC#Cc4cccc5c4CN(C4CCC(=O)NC4=O)C5=O)CC3)c3ccccc3)N2C(=O)[C@@H](NC(=O)c2cc3cc(C(F)(F)P(=O)(O)O)ccc3s2)C1 (some centres not stated) | 62 | 2500 | – |
| CN1CC[C@H]2CC[C@@H](C(=O)N[C@@H](CCC(N)=O)C(=O)N[C@H](C(=O)N3CCC(CCC#Cc4cccc5c4CN(C4CCC(=O)NC4=O)C5=O)CC3)c3ccccc3)N2C(=O)[C@@H](NC(=O)c2cc3cc(C(F)(F)P(=O)(O)O)ccc3s2)C1 (some centres not stated) | 86 | 300 | – |
| CN1CC[C@H]2CC[C@@H](C(=O)N[C@@H](CCC(N)=O)C(=O)N[C@H](C(=O)NCCCCCC#Cc3cccc4c3CN(C3CCC(=O)NC3=O)C4=O)c3ccccc3)N2C(=O)[C@@H](NC(=O)c2cc3cc(C(F)(F)P(=O)(O)O)ccc3s2)C1 (some centres not stated) | 34 | > 5000 | – |
| CN1CC[C@H]2CC[C@@H](C(=O)N[C@@H](CCC(N)=O)C(=O)N[C@H](C(=O)NCCCCC#Cc3cccc4c3CN(C3CCC(=O)NC3=O)C4=O)c3ccccc3)N2C(=O)[C@@H](NC(=O)c2cc3cc(C(F)(F)P(=O)(O)O)ccc3s2)C1 (some centres not stated) | 42 | > 5000 | – |
| CN1CC[C@H]2CC[C@@H](C(=O)N[C@@H](CCC(N)=O)C(=O)N[C@@H](Cc3ccccc3)C(=O)N3CCC(CCC#Cc4cccc5c4CN(C4CCC(=O)NC4=O)C5=O)CC3)N2C(=O)[C@@H](NC(=O)c2cc3cc(C(F)(F)P(=O)(O)O)ccc3s2)C1 (some centres not stated) | 94 | 130 | pIC50 [5]: < 8.00; Activity [3]: 50%; Activity [4]: 60% |
| CN1CC[C@H]2CC[C@@H](C(=O)N[C@@H](CCC(N)=O)C(=O)N[C@H](CC(=O)N3CCC(C#Cc4cccc5c4CN(C4CCC(=O)NC4=O)C5)CC3)c3ccccc3)N2C(=O)[C@@H](NC(=O)c2cc3cc(C(F)(F)P(=O)(O)O)ccc3s2)C1 (some centres not stated) | 0 | > 5000 | – |
| CN1CC[C@H]2CC[C@@H](C(=O)N[C@@H](CCC(N)=O)C(=O)N[C@H](CCC(=O)N3CCC(C#Cc4cccc5c4CN(C4CCC(=O)NC4=O)C5)CC3)c3ccccc3)N2C(=O)[C@@H](NC(=O)c2cc3cc(C(F)(F)P(=O)(O)O)ccc3s2)C1 (some centres not stated) | 31 | > 5000 | – |
| CN1CC[C@H]2CC[C@@H](C(=O)N[C@@H](CCC(N)=O)C(=O)N[C@@H](Cc3ccc(F)cc3)C(=O)N3CCC(CCC#Cc4cccc5c4CN(C4CCC(=O)NC4=O)C5=O)CC3)N2C(=O)[C@@H](NC(=O)c2cc3cc(C(F)(F)P(=O)(O)O)ccc3s2)C1 (some centres not stated) | 94 | 90 | Activity [3]: 50%; Activity [4]: 70% |
| CN1CC[C@H]2CC[C@@H](C(=O)N[C@@H](CCC(N)=O)C(=O)N[C@H](C(=O)NCCCCCCCC#Cc3cccc4c3CN(C3CCC(=O)NC3=O)C4=O)c3ccccc3)N2C(=O)[C@@H](NC(=O)c2cc3cc(C(F)(F)P(=O)(O)O)ccc3s2)C1 (some centres not stated) | 52 | 1500 | – |
| CN1CC[C@H]2CC[C@@H](C(=O)N[C@@H](CCC(N)=O)C(=O)N[C@](C)(C(=O)N3CCC(CCC#Cc4cccc5c4CN(C4CCC(=O)NC4=O)C5=O)CC3)c3ccccc3)N2C(=O)[C@@H](NC(=O)c2cc3cc(C(F)(F)P(=O)(O)O)ccc3s2)C1 (some centres not stated) | 2 | > 5000 | Activity [6]: inactive |
| CC(C)N1CC[C@H]2CC[C@@H](C(=O)N[C@@H](CCC(N)=O)C(=O)N[C@@H](Cc3ccc(F)c(F)c3)C(=O)N3CCC(CCC#Cc4cccc5c4CN(C4CCC(=O)NC4=O)C5=O)CC3)N2C(=O)[C@@H](NC(=O)c2cc3cc(C(F)(F)P(=O)(O)O)ccc3s2)C1 (some centres not stated) | 83 | 500 | Activity [7]: > 90%; Activity [8]: > 90%; pIC50 (SU-DHL-1): 5.75; Activity [9]: > 90%; Activity [3]: > 90%; Activity [10]: > 90%; pIC50 [11]: 7.03; Activity [4]: > 90%; pIC50 [12]: 5.81 |
| NC(=O)CC[C@H](NC(=O)[C@@H]1CC[C@@H]2CCN(C(=O)CCCCCC#Cc3cccc4c3CN(C3CCC(=O)NC3=O)C4=O)C[C@H](NC(=O)c3cc4cc(C(=O)P(=O)(O)O)ccc4[nH]3)C(=O)N21)C(=O)NC(c1ccccc1)c1ccccc1 (some centres not stated) | 88 | 400 | pIC50 (SU-DHL-1): 6.52; pIC50 [11]: 7.66; pIC50 [12]: 6.33 |
| CCN1CC[C@H]2CC[C@@H](C(=O)N[C@@H](CCC(N)=O)C(=O)N[C@@H](Cc3ccc(F)c(F)c3)C(=O)N3CCC(CCC#Cc4cccc5c4CN(C4CCC(=O)NC4=O)C5=O)CC3)N2C(=O)[C@@H](NC(=O)c2cc3cc(C(F)(F)P(=O)(O)O)ccc3s2)C1 (some centres not stated) | 92 | 200 | pIC50 (SU-DHL-1): 6.27; Activity [3]: 80%; pIC50 [11]: 7.51; Activity [4]: 80%; pIC50 [12]: 6.27 |
| CN1CC[C@H]2CC[C@@H](C(=O)N[C@@H](CCC(N)=O)C(=O)N[C@@H](C(=O)NCCCCCCC#Cc3cccc4c3CN(C3CCC(=O)NC3=O)C4=O)c3ccccc3)N2C(=O)[C@@H](NC(=O)c2cc3cc(C(F)(F)P(=O)(O)O)ccc3s2)C1 (some centres not stated) | 36 | > 5000 | – |
| CN1CC[C@H]2CC[C@@H](C(=O)N[C@@H](CCC(N)=O)C(=O)N[C@H](C(=O)NCCCCCCCCCC#Cc3cccc4c3CN(C3CCC(=O)NC3=O)C4)c3ccccc3)N2C(=O)[C@@H](NC(=O)c2cc3cc(C(F)(F)P(=O)(O)O)ccc3s2)C1 (some centres not stated) | 66 | 300 | – |
| CN1CC[C@H]2CC[C@@H](C(=O)N[C@@H](CCC(N)=O)C(=O)N[C@H](C(=O)NCCCC#Cc3cccc4c3CN(C3CCC(=O)NC3=O)C4=O)c3ccccc3)N2C(=O)[C@@H](NC(=O)c2cc3cc(C(F)(F)P(=O)(O)O)ccc3s2)C1 (some centres not stated) | 16 | > 5000 | – |
| CN1CC[C@H]2CC[C@@H](C(=O)N[C@@H](CCC(N)=O)C(=O)N[C@@H](C(=O)NCCCCCCCCC#Cc3cccc4c3CN(C3CCC(=O)NC3=O)C4=O)c3ccccc3)N2C(=O)[C@@H](NC(=O)c2cc3cc(C(F)(F)P(=O)(O)O)ccc3s2)C1 (some centres not stated) | 60 | 800 | – |
| CN1CC[C@H]2CC[C@@H](C(=O)N[C@@H](CCC(N)=O)C(=O)NC3(C(=O)N4CCC(CCC#Cc5cccc6c5CN(C5CCC(=O)NC5=O)C6=O)CC4)CCCCC3)N2C(=O)[C@@H](NC(=O)c2cc3cc(C(F)(F)P(=O)(O)O)ccc3s2)C1 (some centres not stated) | 0 | > 5000 | Activity [6]: inactive |
| CN1CC[C@H]2CC[C@@H](C(=O)N[C@@H](CCC(N)=O)C(=O)N[C@@H](Cc3ccc(F)c(F)c3)C(=O)N3CCC(CCC#Cc4cccc5c4CN(C4CCC(=O)NC4=O)C5=O)CC3)N2C(=O)[C@@H](NC(=O)c2cc3cc(C(F)(F)P(=O)(O)O)ccc3s2)C1 (some centres not stated) | 90 | 220 | Activity [3]: 50%; Activity [4]: 80% |
| CN1CC[C@H]2CC[C@@H](C(=O)N[C@@H](CCC(N)=O)C(=O)N[C@H](C(=O)N3CCC(CCC#Cc4cccc5c4CN(C4CCC(=O)NC4=O)C5=O)CC3)C3CCCCC3)N2C(=O)[C@@H](NC(=O)c2cc3cc(C(F)(F)P(=O)(O)O)ccc3s2)C1 (some centres not stated) | 91 | 260 | – |
